Data published in US4661630A, “Carboxylic acid amides and their derivatives” (Eisai Co., Ltd., priority 1982, dated 1987).

Tests used:
[1] = tested on: maximal electroshock seizures in mice; test: Anti-electroshock convulsion activity (maximal electroshock seizures, method of Goodman et al.); type: in vivo; settings: 2 hours after oral administration, n = 8, 25 mA, 0.25 sec.
Protocol: The effects of the representative compounds of the present invention on maximal electroshock seizures in mice were determined by the method of Goodman et al. [Goodman L. S., Singh Grewal M., Brown W. C. and Swinyard E. A., J. Pharmacol, Exp. Ther., 108, 168-176 (1953)]. At 2 hours after oral administration of test compounds, current (25 mA, 0.25 sec.) was delivered to animals with an electroshock device (made by Unique Medical).

[2] = tested on: metrazol-induced convulsive death; test: Anti-metrazol activity (metrazol-induced convulsive death); type: in vivo; settings: oral doses of 20 to 80 mg/kg, male STD-ddY mice
Text: (a) Anti-metrazol activity of the compounds of the present invention was examined in male STD-ddY mice.

[3] = tested on: mortality induced by potassium cyanide; test: Anti-hypoxic activity (mortality induced by potassium cyanide); type: in vivo; settings: 10 to 20 mg/kg, p.o., male STD-ddY mice
[4] = Acute toxicity (oral LD50); settings: mouse, in vivo, mice
Text: (c) Acute toxicity of the compounds of the present invention was relatively low.

SMILES | Inhibition (%) of tonic extension ([1]; 10 mg/kg p.o.) [%] | Inhibition (%) of tonic extension ([1]; 20 mg/kg p.o.) [%] | Inhibition (%) of tonic extension ([1]; 40 mg/kg p.o.) [%] | Inhibition (%) of tonic extension ([1]; 80 mg/kg p.o.) [%] | Inhibition (%) of tonic extension ([1]; 320 mg/kg p.o.) [%] | antagonism against metrazol-induced convulsive death [2] | anti-hypoxic activity (antagonism against mortality induced by potassium cyanide) [3] | LD50 [4] [mg/kg]
O=C(Nc1cc(C(F)(F)F)cc(C(F)(F)F)c1)[C@H]1CCCC[C@H]1C(=O)O (relative stereo) [Compound A, cis-2-[(3,5-bistrifluoromethyl)-phenyl-aminocarbonyl]-cyclohexane carboxylic acid] | 25 | 50 | 100 | 100 | 100 | dose-dependent antagonism | potent anti-hypoxic activity | 1000 to 2000
O=C(O)[C@@H]1CCCC[C@H]1C(=O)Nc1cc(C(F)(F)F)cc(C(F)(F)F)c1 (relative stereo) [Compound B, trans-2-[(3,5-bistrifluoromethyl)-phenyl-aminocarbonyl]-cyclohexane carboxylic acid] | – | – | – | 0 | 100 | – | – | –
O=C(Nc1cc(C(F)(F)F)cc(C(F)(F)F)c1)[C@H]1CC=CC[C@H]1C(=O)O (relative stereo) [Compound C, cis-6-[(3,5-bistrifluoromethyl-phenyl)-aminocarbonyl]-3-cyclohexene carboxylic acid] | 12.5 | 100 | 100 | 100 | 100 | dose-dependent antagonism | potent anti-hypoxic activity | 1000 to 2000
O=C(Nc1cc(C(F)(F)F)cc(C(F)(F)F)c1)[C@@H]1[C@@H]2CC[C@@H](C2)[C@@H]1C(=O)O (relative stereo) [Compound E, cis-endo-3-[(3,5-bistrifluoromethyl-phenyl)-aminocarbonyl]-bicyclo-(2,2,1)-heptane-2-carboxylic acid] | – | – | – | 0 | 100 | – | – | –
CC1CC[C@H](C(=O)O)[C@H](C(=O)Nc2cc(C(F)(F)F)cc(C(F)(F)F)c2)C1 (relative stereo) [Compound F, cis-2-[(3,5-bistrifluoromethyl-phenyl)-aminocarbonyl]-4(5)-methyl-cyclohexane carboxylic acid] | – | – | 50 | 100 | 100 | – | – | –
O=C(O)C1=C(C(=O)Nc2cc(C(F)(F)F)cc(C(F)(F)F)c2)CCCC1 [Compound D, 2-[(3,5-bistrifluoromethyl-phenyl)-aminocarbonyl]-1-cyclohexenecarboxylic acid] | – | – | – | 0 | 100 | – | – | –
O=C1C2CCCCC2C(=O)N1c1cc(C(F)(F)F)cc(C(F)(F)F)c1 (stereo not drawn) [Compound G, N-(3,5-bistrifluoromethylphenyl)-cyclohexane-1,2-dicarboximide] | – | – | 25 | 100 | 100 | – | – | –
O=C1C2CC=CCC2C(=O)N1c1cc(C(F)(F)F)cc(C(F)(F)F)c1 (stereo not drawn) [Compound H, N-(3,5-bistrifluoromethylphenyl)-4-cyclohexene-1,2-dicarboximide] | – | – | – | 50 | 87.5 | – | – | –
